We go through five molecules from PubChem BioAssay AID1963986 (Molecular Pharmacology Branch, DTP, NCI, 2024).

Broadly, the pIC50 is the IC50 on a negative log10 scale, so that one unit is a factor of ten. By viability, T/C is commonly meant the result in the treated group divided by that in the control group, in per cent. The term IC50 denotes the concentration that inhibits the measured activity by half.

The test system of this assay is 171881-019-R-J1-PDC tumor spheroid viability. The assay can be described thus: Anticancer human tumor 171881-019-R-J1-PDC patient-derived invasive breast carcinoma cell line growth inhibition [PI3K]. As to conditions: spheroids with HUVEC and MSC; for pIC50: curve of first compound; for viability, T/C: stronger effect = lower value; for IC50: curve of compound. In outline:
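Three cell types, namely tumor cells, endothelial cells and mesenchymal stem cells, formed each spheroid. Combinations with four PI3K inhibitors were screened at clinically achievable concentrations decreasing by half-log, and spheroid viability was recorded.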

Where [1] appears, read: second compound 0.0316 µM, first compound 0.0316 µM.
Setting [2] is: second compound 0.0316 µM, first compound 0.1 µM.
Where [3] appears, read: second compound 0.0316 µM, first compound 0.316 µM.
The mark [4] stands for this setting: second compound 0.0316 µM, first compound 1 µM.
[5] abbreviates: second compound 0.1 µM, first compound 0.0316 µM.
The mark [6] stands for this setting: second compound 0.1 µM, first compound 0.1 µM.
The mark [7] stands for this setting: second compound 0.1 µM, first compound 0.316 µM.
[8] abbreviates: second compound 0.1 µM, first compound 1 µM.
Where [9] appears, read: second compound 0.316 µM, first compound 0.0316 µM.
[10] abbreviates: second compound 0.316 µM, first compound 0.1 µM.
[11] abbreviates: second compound 0.316 µM, first compound 0.316 µM.
Setting [12] is: second compound 0.316 µM, first compound 1 µM.
[13] abbreviates: second compound 1 µM, first compound 0.0316 µM.
[14] abbreviates: second compound 1 µM, first compound 0.1 µM.
[15] abbreviates: second compound 1 µM, first compound 0.316 µM.
Where [16] appears, read: second compound 1 µM, first compound 1 µM.
Where [17] appears, read: second compound 3.16 µM, first compound 0.0316 µM.
[18] abbreviates: second compound 3.16 µM, first compound 0.1 µM.
Setting [19] is: second compound 3.16 µM, first compound 0.316 µM.
Setting [20] is: second compound 3.16 µM, first compound 1 µM.
Setting [21] is: second compound 10 µM, first compound 0.0316 µM.
[22] abbreviates: second compound 10 µM, first compound 0.1 µM.
Where [23] appears, read: second compound 10 µM, first compound 0.316 µM.
Where [24] appears, read: second compound 10 µM, first compound 1 µM.

pIC50: −log10 of the molar value. “And” between values parts separate entries of the source, which are not always exact repeats. Equal entries are not always repeated.
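Also: spheroids exposed to compound for 7 days before viability read.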
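For viability, T/C in this document: 100% = DMSO vehicle-treated spheroids.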

For the molecule `CCN1CCN(Cc2ccc(Nc3ncc(F)c(-c4cc(F)c5nc(C)n(C(C)C)c5c4)n3)nc2)CC1` + CC(Nc1ncnc2nc[nH]c12)c1cc2cccc(Cl)c2c(=O)n1-c1ccccc1, the pIC50 was under 6.00 (second compound 0.0316 µM); under 6.00 (second compound 0.1 µM); under 6.00 (second compound 0.316 µM); under 6.00 (second compound 1 µM); under 6.00 (second compound 3.16 µM); under 6.00 (second compound 10 µM). Further, the viability, T/C was 96.4% (second compound 0.0316 µM, first compound 0.00316 µM); 98.5% (second compound 0.0316 µM, first compound 0.01 µM); 103% under setting [1]; 98% under setting [2]; 122% under setting [3]; 117% under setting [4]. For the same molecule, the viability, T/C reads like this: (second compound 0.1 µM, first compound 0.00316 µM) 99%; (second compound 0.1 µM, first compound 0.01 µM) 95.5%; under setting [5], 99.8%; under setting [6], 110%; under setting [7], 113%; under setting [8], 118%. For the same molecule, the viability, T/C reads like this: (second compound 0.316 µM, first compound 0.00316 µM) 95.4%; (second compound 0.316 µM, first compound 0.01 µM) 103%; under setting [9], 103%; under setting [10], 105%; under setting [11], 111%; under setting [12], 116%. Moreover, the viability, T/C runs as follows: (second compound 1 µM, first compound 0.00316 µM) 92.7%; (second compound 1 µM, first compound 0.01 µM) 98.4%; under setting [13], 97.5%; under setting [14], 108%; under setting [15], 114%; under setting [16], 114%. Besides, the viability, T/C is 95.5% (second compound 3.16 µM, first compound 0.00316 µM); 94.8% (second compound 3.16 µM, first compound 0.01 µM); 72.9% under setting [17]; 98.6% under setting [18]; 104% under setting [19]; 101% under setting [20]. The viability, T/C (second compound 10 µM, first compound 0.00316 µM) is 67.5%; the viability, T/C (second compound 10 µM, first compound 0.01 µM) is 61%; the viability, T/C under setting [21] is 69.5%; the viability, T/C under setting [22] was 72.5%; the viability, T/C under setting [23] is 80.8%; the viability, T/C under setting [24] was 84.3%.
In the case of `CC(C)n1nc(-c2ccc3oc(N)nc3c2)c2c(N)ncnc21`, the IC50 is 11.9 nM [middle of 4 runs]. For the same molecule, where the note is “compound 0.001 µM”, the viability, T/C was 76.3% and 86.4% and 84.6% (2×). For the same molecule, the viability, T/C (compound 0.00316 µM) was 78.9% [middle of 4 runs]. The viability, T/C (compound 0.01 µM) was 53.9% [middle of 4 runs]. Also, the viability, T/C (compound 0.0316 µM) was 24% [middle of 4 runs]. The viability, T/C (compound 0.1 µM) was 3.78% [middle of 4 runs].
For `Cn1cnc2c(F)c(Nc3ccc(Br)cc3Cl)c(C(=O)NOCCO)cc21`, the IC50 was 653 nM [middle of 4 runs]. For the same molecule, the viability, T/C (compound 0.00949 µM) was 90.4% [middle of 4 runs]. Further, the viability, T/C (compound 0.03 µM) is 83.8% [middle of 4 runs]. Moreover, the viability, T/C (compound 0.0949 µM) was 80.9% [middle of 4 runs]. In addition, the viability, T/C (compound 0.3 µM) was 64.1% [middle of 4 runs]. Also, the viability, T/C (compound 0.949 µM) was 42.6% [middle of 4 runs]. Further, the viability, T/C (compound 3 µM) is 19% [middle of 4 runs].
With `C#Cc1c(F)ccc2cc(O)cc(-c3ncc4c(N5CC6CCC(C5)N6)nc(OCC56CCCN5CC(F)C6)nc4c3F)c12` (centres undefined), the IC50 was 425 nM [middle of 4 runs]. In addition, the viability, T/C (compound 0.0316 µM) was 86.7% [middle of 4 runs]. Also, for the setting “compound 0.1 µM”, the viability, T/C was 70.6% [middle of 4 runs]. For the same molecule, the viability, T/C (compound 0.316 µM) was 53.7% [middle of 4 runs]. Besides, for the setting “compound 1 µM”, the viability, T/C was 40.4% [middle of 4 runs]. Further, under “compound 3.16 µM”, the viability, T/C was 35.4% [middle of 4 runs]. Also, under “compound 10 µM”, the viability, T/C is 27.9% [middle of 4 runs].
With `C=CC(=O)N1CCN(c2nc(=O)n(-c3c(C)ccnc3C(C)C)c3nc(-c4c(O)cccc4F)c(F)cc23)C(C)C1` (centres undefined) + Cc1nc(NC(=O)N2CCCC2C(N)=O)sc1-c1ccnc(C(C)(C)C(F)(F)F)c1, the pIC50 (second compound 0.0316 µM) was 5.01; the pIC50 (second compound 0.1 µM) was 5.03; the pIC50 (second compound 0.316 µM) is 5.63; the pIC50 (second compound 1 µM) is over 7.50; the pIC50 (second compound 3.16 µM) was over 7.50; the pIC50 (second compound 10 µM) is over 7.50. Moreover, the viability, T/C under setting [1] was 92.6%; the viability, T/C under setting [2] is 83.4%; the viability, T/C under setting [3] was 98.4%; the viability, T/C under setting [4] is 92%; the viability, T/C (second compound 0.0316 µM, first compound 3.16 µM) is 79.6%; the viability, T/C (second compound 0.0316 µM, first compound 10 µM) is 48.8%. The viability, T/C reads like this: under setting [5], 84.1%; under setting [6], 73.2%; under setting [7], 86.3%; under setting [8], 87.4%; (second compound 0.1 µM, first compound 3.16 µM) 86.9%; (second compound 0.1 µM, first compound 10 µM) 48.2%. For the same molecule, the viability, T/C under setting [9] is 55%; the viability, T/C under setting [10] is 50.9%; the viability, T/C under setting [11] is 56.8%; the viability, T/C under setting [12] was 60.4%; the viability, T/C (second compound 0.316 µM, first compound 3.16 µM) was 57.9%; the viability, T/C (second compound 0.316 µM, first compound 10 µM) is 34.7%. In addition, the viability, T/C by setting is: under setting [13], 29.8%; under setting [14], 32.3%; under setting [15], 32.1%; under setting [16], 32.4%; (second compound 1 µM, first compound 3.16 µM) 33%; (second compound 1 µM, first compound 10 µM) 19.4%. In addition, the viability, T/C under setting [17] was 14.7%; the viability, T/C under setting [18] was 15.2%; the viability, T/C under setting [19] was 14.5%; the viability, T/C under setting [20] is 15.2%; the viability, T/C (second compound 3.16 µM, first compound 3.16 µM) is 16.8%; the viability, T/C (second compound 3.16 µM, first compound 10 µM) was 8.95%. In addition, the viability, T/C runs as follows: under setting [21], 3.67%; under setting [22], 3.63%; under setting [23], 4.33%; under setting [24], 4.28%; (second compound 10 µM, first compound 3.16 µM) 4.51%; (second compound 10 µM, first compound 10 µM) 2.34%.
